Experiments:
Assay in all cases: relative viability (nuclei count vs DMSO), 5 days (fraction); higher = more cells survive
IU1-47 + Olaparib = compound: CC1=CC(=C(N1C2=CC=C(C=C2)Cl)C)C(=O)CN3CCCCC3 [IU1-47] + O=C(c1cc(Cc2n[nH]c(=O)c3ccccc23)ccc1F)N1CCN(C(=O)C2CC2)CC1 [Olaparib] (partner 8 µM)
Summary of the method: (§1)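 After 5 days of treatment, lung cancer cells in 1536-well plates were fixed and stained in a single step (final 0.05% Triton X-100, 1% formaldehyde, 1 ug/ml Hoechst) and their nuclei counted on 4× images. Treatment had been applied by pin tool the day after seeding as one drug alone or as a fixed anchor-drug dose with five library-drug doses (not always all listed) in √10 steps. Relative viability is the nuclei count of treated wells divided by that of vehicle wells, and values are medians of duplicate plates.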

FG-4592 + Pictilisib = compound: Cc1nc(C(=O)NCC(=O)O)c(O)c2ccc(Oc3ccccc3)cc12 [FG-4592] + CS(=O)(=O)N1CCN(Cc2cc3nc(-c4cccc5[nH]ncc45)nc(N4CCOCC4)c3s2)CC1 [Pictilisib] (partner 1 µM)
Summary of the method: as §1

FG-4592 + AZD7762 = compound: Cc1nc(C(=O)NCC(=O)O)c(O)c2ccc(Oc3ccccc3)cc12 [FG-4592] + NC(=O)Nc1cc(-c2cccc(F)c2)sc1C(=O)N[C@H]1CCCNC1 [AZD7762] (partner 0.2 µM)
Summary of the method: as §1

IU1-47 + Luminespib = compound: CC1=CC(=C(N1C2=CC=C(C=C2)Cl)C)C(=O)CN3CCCCC3 [IU1-47] + CCNC(=O)c1noc(-c2cc(C(C)C)c(O)cc2O)c1-c1ccc(CN2CCOCC2)cc1 [Luminespib] (partner 0.01 µM)
Summary of the method: as §1

| Cell Line | relative viability (IU1-47 + Olaparib; first compound 0.08 µM) | relative viability (IU1-47 + Olaparib; first compound 0.253 µM) | relative viability (IU1-47 + Olaparib; first compound 0.8 µM) | relative viability (IU1-47 + Olaparib; first compound 2.53 µM) | relative viability (IU1-47 + Olaparib; first compound 8 µM) | relative viability (FG-4592 + Pictilisib; first compound 0.08 µM) | relative viability (FG-4592 + Pictilisib; first compound 0.253 µM) | relative viability (FG-4592 + Pictilisib; first compound 0.8 µM) | relative viability (FG-4592 + Pictilisib; first compound 2.53 µM) | relative viability (FG-4592 + Pictilisib; first compound 8 µM) | relative viability (FG-4592 + AZD7762; first compound 0.08 µM) | relative viability (FG-4592 + AZD7762; first compound 0.8 µM) | relative viability (FG-4592 + AZD7762; first compound 2.53 µM) | relative viability (FG-4592 + AZD7762; first compound 8 µM) | relative viability (IU1-47 + Luminespib; first compound 0.08 µM) | relative viability (IU1-47 + Luminespib; first compound 0.253 µM) | relative viability (IU1-47 + Luminespib; first compound 0.8 µM) | relative viability (IU1-47 + Luminespib; first compound 2.53 µM) | relative viability (IU1-47 + Luminespib; first compound 8 µM) | relative viability (FG-4592 + AZD7762; first compound 0.253 µM) |
| --- | --- | --- | --- | --- | --- | --- | --- | --- | --- | --- | --- | --- | --- | --- | --- | --- | --- | --- | --- | --- |
| HCC-78 | 0.803 | 0.792 | 0.805 | 0.59 | 0.813 | 0.219 | 0.248 | 0.182 | 0.222 | 0.225 | 0.558 | 0.534 | 0.625 | 0.662 | – | – | – | – | – | – |
| IA-LM | 0.748 | 0.863 | 0.958 | 0.979 | 0.903 | 0.358 | 0.291 | 0.308 | 0.295 | 0.201 | – | – | – | – | – | – | – | – | – | – |
| COR-L23 | 0.382 | 0.389 | 0.314 | 0.396 | 0.405 | 0.812 | 0.617 | 0.849 | 0.685 | 0.728 | – | – | – | – | 0.836 | 0.85 | 0.71 | 0.817 | 0.675 | – |
| NCI-H2023 | 0.454 | 0.639 | 0.49 | 0.44 | 0.479 | 0.203 | 0.202 | 0.143 | 0.205 | 0.196 | – | – | – | – | 0.777 | 0.902 | 0.913 | 0.885 | 0.768 | – |
| COR-L 105 | 0.817 | 0.78 | 0.699 | 0.665 | 0.745 | 0.372 | 0.326 | 0.328 | 0.266 | 0.318 | – | – | – | – | 0.775 | 0.673 | 1 | 0.809 | 0.696 | – |
| NCI-H520 | 0.32 | 0.391 | 0.269 | 0.349 | 0.309 | 0.269 | 0.293 | 0.225 | 0.291 | 0.258 | – | – | – | – | 0.259 | 0.238 | 0.248 | 0.285 | 0.248 | – |
| SK-LU-1 | 0.663 | 0.444 | 0.462 | 0.55 | 0.388 | 0.436 | 0.418 | 0.582 | 0.55 | 0.428 | – | – | – | – | 0.202 | 0.197 | 0.204 | 0.238 | 0.207 | – |
| NCI-H522 | 0.724 | 0.715 | 0.525 | 0.665 | 0.668 | – | – | – | – | – | 0.78 | – | 0.666 | 0.819 | 1.32 | 1.27 | 1.35 | 0.864 | 1.23 | 0.717 |
| NCI-H1299 | 0.982 | 1.03 | 0.958 | 0.923 | 0.959 | 0.913 | 0.645 | 0.915 | 0.724 | 0.752 | – | – | – | – | – | – | – | – | – | – |

Source: the supplement of paper PMC10307832
